Measurements: ChEMBL document CHEMBL3217702, “Oxadiazole isomers: all bioisosteres are not created equal” (Medchemcomm, 2012)
In brackets after ≈: the same amount, converted by molar mass. One block for each compound: values may come before it.

Experiments:
[1] = Hexadecane-phosphate buffer distribution coefficient, log P of the compound at pH 7.4; format: physicochemical
[2] = Intrinsic clearance in rat hepatocytes measured per 10^6 cells; format: ADME, cell-based, Hepatocyte; settings: read-out: CLH
[3] = Intrinsic clearance in human microsomes; format: ADME, Microsome
[4] = Permeability from apical to basolateral side in human Caco2 cells; format: ADME, cell-based; settings: Caco-2, read-out: permeability
[5] = Permeability from basolateral to apical side in human Caco2 cells; format: ADME, cell-based; settings: Caco-2, read-out: permeability
[6] = Hydrolytic stability of the compound at 10 uM at pH 4 at 65 degC after 18 hrs in presence of 2-methoxyethanol; format: physicochemical; settings: buffer, pH 4, 18 h
[7] = Hydrolytic stability of the compound at 10 uM at pH 6 at 65 degC after 18 hrs in presence of 2-methoxyethanol; format: physicochemical; settings: buffer, pH 6, 18 h
[8] = Hydrolytic stability of the compound at 10 uM at pH 8 at 65 degC after 18 hrs in presence of 2-methoxyethanol; format: physicochemical; settings: buffer, pH 8, 18 h
[9] = Half life at 10 uM at pH 4 at 65 degC; format: physicochemical; settings: buffer
[10] = Half life at 10 uM at pH 6 at 65 degC; format: physicochemical; settings: buffer
[11] = Half life at 10 uM at pH 8 at 65 degC; format: physicochemical; settings: buffer
[12] = Half life at 10 uM at pH 4 at 25 degC; format: physicochemical; settings: buffer
[13] = Half life at 10 uM at pH 6 at 25 degC; format: physicochemical; settings: buffer
[14] = Half life at 10 uM at pH 8 at 25 degC; format: physicochemical; settings: buffer
physchem [15] = settings: octanol/aqueous phosphate buffer, pH 7.4
Description: Octanol-aqueous phosphate buffer distribution coefficient, log P of the compound at pH 7.4

[16] = Fraction unbound in human plasma; format: ADME, cell-free
[17] = Fraction unbound in mouse plasma; format: ADME, cell-free
[18] = Fraction unbound in rat plasma; format: ADME, cell-free
[19] = biological target: Voltage-gated inwardly rectifying potassium channel KCNH2 (Homo sapiens, UniProt Q12809); assay: Inhibition of human ERG
physchem [20] = settings: aqueous phosphate buffer, pH 7.4
Description: Solubility of the compound in aqueous phosphate buffer at pH 7.4 at 25 degC after 24 hrs

Chain of Voltage-gated inwardly rectifying potassium channel KCNH2 (Q12809 whole entry): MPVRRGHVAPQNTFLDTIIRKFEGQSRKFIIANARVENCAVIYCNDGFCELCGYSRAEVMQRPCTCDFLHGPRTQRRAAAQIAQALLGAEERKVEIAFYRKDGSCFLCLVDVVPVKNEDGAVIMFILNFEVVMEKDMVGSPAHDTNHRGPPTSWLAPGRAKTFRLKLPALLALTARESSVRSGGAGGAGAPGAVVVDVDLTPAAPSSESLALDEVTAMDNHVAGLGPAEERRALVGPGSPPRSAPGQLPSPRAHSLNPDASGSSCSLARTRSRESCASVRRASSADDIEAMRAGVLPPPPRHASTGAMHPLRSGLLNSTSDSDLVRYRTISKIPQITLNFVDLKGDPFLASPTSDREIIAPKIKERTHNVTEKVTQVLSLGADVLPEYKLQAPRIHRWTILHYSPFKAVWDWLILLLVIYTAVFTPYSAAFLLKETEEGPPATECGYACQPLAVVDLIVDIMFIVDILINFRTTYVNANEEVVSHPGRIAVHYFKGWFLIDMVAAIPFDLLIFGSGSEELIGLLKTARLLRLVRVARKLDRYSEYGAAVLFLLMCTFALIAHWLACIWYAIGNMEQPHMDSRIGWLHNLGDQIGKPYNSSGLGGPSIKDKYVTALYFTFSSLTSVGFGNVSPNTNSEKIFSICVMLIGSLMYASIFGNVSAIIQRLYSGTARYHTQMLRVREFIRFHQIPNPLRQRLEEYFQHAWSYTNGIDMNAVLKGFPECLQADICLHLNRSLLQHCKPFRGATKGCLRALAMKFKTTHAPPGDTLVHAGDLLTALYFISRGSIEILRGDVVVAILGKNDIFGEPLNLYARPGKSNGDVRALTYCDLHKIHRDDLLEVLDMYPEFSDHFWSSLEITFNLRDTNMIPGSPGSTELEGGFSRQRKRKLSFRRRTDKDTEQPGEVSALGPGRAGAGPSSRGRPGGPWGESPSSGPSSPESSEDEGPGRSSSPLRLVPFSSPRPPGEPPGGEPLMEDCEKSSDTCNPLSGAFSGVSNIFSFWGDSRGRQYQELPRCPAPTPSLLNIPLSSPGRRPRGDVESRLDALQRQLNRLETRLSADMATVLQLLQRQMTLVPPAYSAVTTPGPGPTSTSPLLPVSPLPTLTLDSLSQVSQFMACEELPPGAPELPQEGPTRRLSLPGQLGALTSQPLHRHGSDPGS

Structure (SMILES): CC(C)c1nc(N2CCN(c3ncc(OCc4ccncc4C#N)cn3)[C@H](C)C2)no1
logP [1]: 1.3 | hepatocyte CLint [2]: 70 µL/min/1e6 cells | microsomal CLint [3]: 48 µL/min/mg | Papp A→B [4]: 15 ×10⁻⁶ cm/s | Papp B→A [5]: 6 ×10⁻⁶ cm/s | Stability [6]: Stable | Stability [7]: Stable | Stability [8]: Stable

Structure (SMILES): CC(C)c1noc(N2CCN(c3ncc(OCc4ccncc4C#N)cn3)[C@H](C)C2)n1
hepatocyte CLint [2]: 72 µL/min/1e6 cells | microsomal CLint [3]: 55 µL/min/mg | Stability [6]: Stable | Stability [7]: Stable | Stability [8]: Stable

Structure (SMILES): C[C@@H]1CN(c2nc(C(F)(F)F)no2)CCN1c1ncc(OCc2ccncc2C#N)cn1
logP [1]: 1.4 | hepatocyte CLint [2]: 52 µL/min/1e6 cells | microsomal CLint [3]: 40 µL/min/mg | Papp A→B [4]: 13 ×10⁻⁶ cm/s | Papp B→A [5]: 6 ×10⁻⁶ cm/s | Stability [6]: Stable | Stability [7]: Stable | Stability [8]: Stable

Continued, in another order:

logP [1]: 2.9 | hepatocyte CLint [2]: 42 µL/min/1e6 cells | microsomal CLint [3]: 28 µL/min/mg | Papp A→B [4]: 23 ×10⁻⁶ cm/s | Papp B→A [5]: 6 ×10⁻⁶ cm/s | Stability [6]: Unstable | Stability [7]: Unstable | Stability [8]: Unstable | half-life at 10 µM [9]: 6.96 h | half-life at 10 µM [10]: 8.64 h | half-life at 10 µM [11]: 2.88 h | half-life at 10 µM [12]: 137 h | half-life at 10 µM [13]: 214 h | half-life at 10 µM [14]: 127 h
Structure (SMILES): C[C@@H]1CN(c2noc(C(F)(F)F)n2)CCN1c1ncc(OCc2ccncc2C#N)cn1

logP [1]: 1.4 | Stability [6]: Stable | Stability [7]: Stable | Stability [8]: Stable | logD (physchem [15]): 2.8
Structure (SMILES): C[C@@H]1CN(c2noc(C(F)F)n2)CCN1c1ncc(OCc2ccncc2C#N)cn1

fraction unbound [16]: 0.071 | fraction unbound [17]: 0.131 | fraction unbound [18]: 0.087 | logP [1]: -0.5 | hepatocyte CLint [2]: 63 µL/min/1e6 cells | microsomal CLint [3]: 47 µL/min/mg | Papp A→B [4]: 16 ×10⁻⁶ cm/s | Papp B→A [5]: 13 ×10⁻⁶ cm/s | Stability [6]: Stable | Stability [7]: Stable | Stability [8]: Stable | logD (physchem [15]): 2.6 | solubility at 24 h (physchem [20]): 150 µM (≈ 63.1 µg/mL)
Structure (SMILES): CC(C)c1nnc(N2CCN(c3ncc(OCc4ccncc4C#N)cn3)[C@H](C)C2)o1
IC50 [19]: > 28 µM

logP [1]: 0.5 | hepatocyte CLint [2]: 53 µL/min/1e6 cells | microsomal CLint [3]: 34 µL/min/mg | Papp A→B [4]: 18 ×10⁻⁶ cm/s | Papp B→A [5]: 21 ×10⁻⁶ cm/s | Stability [6]: Stable | Stability [7]: Stable | Stability [8]: Stable | logD (physchem [15]): 2.7
Structure (SMILES): C[C@@H]1CN(c2nnc(C(F)(F)F)o2)CCN1c1ncc(OCc2ccncc2C#N)cn1
